This is an account of results in PubChem BioAssay (NCI).

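Five concentrations, 48 hours, 96-well plates. TGI: total growth inhibition.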

Test systems include M14 melanoma; HOP-62 NSCLC; HOP-92 NSCLC; HS 578T breast; SF-295 CNS; OVCAR-4 ovarian; NCI-H460 lung; SR leukemia; MALME-3M melanoma; MDA-N.
Common to all, as to test: NCI-60 cell line screen, 48 h

In the case of `CC1(C)CC(=O)C2(CC(CSc3ccccc3)C(CS(=O)(=O)c3ccccc3)C2)C(=O)C1` (centres undefined), the TGI in the experiment on M14 melanoma, in the experiment on HOP-62 NSCLC, in the experiment on HOP-92 NSCLC, in the experiment with HS 578T breast, in the experiment on SF-295 CNS and in the experiment on OVCAR-4 ovarian was > 100 µM in each case.
`COc1cc(C2C3=C(COC3=O)Oc3cc4c(cc32)OCO4)cc(OC)c1O` (centres undefined): the TGI with M14 melanoma was > 100 µM; in the experiment on HOP-62 NSCLC it was 15.2 µM; with HOP-92 NSCLC it was 5.55 µM; in the experiment on NCI-H460 lung, 4.05 µM; in the experiment on SF-295 CNS, 15.4 µM; with OVCAR-4 ovarian, 47.8 µM. The figures for the TGI in the experiment on SR leukemia and in the experiment with MALME-3M melanoma were > 100 µM and 39.5 µM, respectively.
Turning to `CN(C)CCn1c(CO)nc2c1c(=O)n(C)c(=O)n2C`, the TGI in the experiment with M14 melanoma, in the experiment on HOP-62 NSCLC, with HS 578T breast, in the experiment on NCI-H460 lung, in the experiment on SF-295 CNS and in the experiment on OVCAR-4 ovarian was > 100 µM throughout. Also, the TGI in the experiment with SR leukemia and in the experiment on MALME-3M melanoma was > 100 µM throughout.
On to `CCOC(=O)c1cc(C)nc2c1c(=O)n(-c1ccccc1)c(=O)n2CCCCN1CCN(c2ccccc2)CC1`, for which the TGI in the experiment with M14 melanoma, in the experiment on HOP-62 NSCLC, in the experiment on HOP-92 NSCLC, in the experiment on HS 578T breast, in the experiment with SF-295 CNS and in the experiment on OVCAR-4 ovarian was > 100 µM throughout. The TGI with SR leukemia was 48.4 µM; in the experiment on MALME-3M melanoma, > 100 µM.
For the compound `CC1(C)CC2(CC(C)(C)N1O)NC(=O)OC2=O`, the TGI is > 100 µM with HOP-62 NSCLC; > 100 µM in the experiment with HOP-92 NSCLC; > 31.6 µM with NCI-H460 lung; > 100 µM in the experiment with SF-295 CNS; > 100 µM with OVCAR-4 ovarian; > 100 µM in the experiment on MALME-3M melanoma.
`C=C=C(CC(CC(=C)Br)(C(=O)OC)C(=O)OC)S(=O)(=O)c1ccccc1`: the TGI in the experiment with M14 melanoma was 4.3 µM; with HOP-62 NSCLC, 12.4 µM; in the experiment on HOP-92 NSCLC, 3.97 µM; in the experiment with HS 578T breast, 6.37 µM; in the experiment on NCI-H460 lung, 20.7 µM; in the experiment with MDA-N it was 8.58 µM. Also, the results for the TGI in the experiment on SF-295 CNS, with OVCAR-4 ovarian and with MALME-3M melanoma were 26.9 µM, 21.2 µM and 4.11 µM, respectively.
For `COc1ccc(OC)c(SC(CC(=O)c2ccccc2)c2ccccc2)c1` (centres undefined), the TGI in the experiment on M14 melanoma is 31 µM; in the experiment on HOP-62 NSCLC, 39.8 µM; in the experiment on HOP-92 NSCLC it was > 100 µM; in the experiment on HS 578T breast it was 68.3 µM; with NCI-H460 lung it was > 100 µM; in the experiment on SF-295 CNS, 31.6 µM. The results for the TGI in the experiment on OVCAR-4 ovarian, in the experiment with SR leukemia and in the experiment on MALME-3M melanoma were > 100 µM, > 100 µM and 38.5 µM, respectively.
`CCOP(=O)(O)CN1CCNCCN(CP(=O)(O)OCC)CCNCC1`: the TGI with HOP-62 NSCLC, in the experiment with HOP-92 NSCLC, with HS 578T breast, in the experiment on NCI-H460 lung, with MDA-N and in the experiment on SF-295 CNS was > 100 µM each time. In addition, in the experiment with OVCAR-4 ovarian, the TGI is > 100 µM.
`COc1cccc(C=O)c1[O-].[O]=[U](=[O])([OH2+])[OH2+]`: the TGI in the experiment with M14 melanoma is > 100 µM; in the experiment with HOP-62 NSCLC, > 100 µM; in the experiment with HOP-92 NSCLC it was > 100 µM; in the experiment on NCI-H460 lung, 58.4 µM; in the experiment on SF-295 CNS, 78.6 µM; in the experiment on OVCAR-4 ovarian it was > 100 µM. Moreover, the TGI in the experiment with SR leukemia is 87.5 µM; in the experiment with MALME-3M melanoma, > 100 µM.
`O=c1oc(C(C(F)(F)F)C(F)(F)F)nc2ccccc12`: the TGI in the experiment with M14 melanoma, in the experiment on HOP-62 NSCLC, in the experiment with HOP-92 NSCLC, with NCI-H460 lung, in the experiment with SF-295 CNS and in the experiment with OVCAR-4 ovarian was > 100 µM in each case. Moreover, the TGI with SR leukemia and with MALME-3M melanoma was > 100 µM each time.
For the compound `Cc1cc(OC(=O)NCn2cc(-c3ccccc3)nn2)ccc1Cl`, the TGI in the experiment with M14 melanoma, in the experiment on HOP-62 NSCLC, with HOP-92 NSCLC, with NCI-H460 lung, with SF-295 CNS and with OVCAR-4 ovarian was > 100 µM throughout. Further, the TGI in the experiment with SR leukemia and in the experiment with MALME-3M melanoma was > 100 µM in each case.
Turning to `Cc1nn(-c2ccccc2)c(C)c1/C=N/N=C1\S/C(=C\c2ccc(Cl)cc2)C(=O)N1c1ccccc1`, the TGI was > 100 µM in the experiment with M14 melanoma; > 100 µM with HOP-62 NSCLC; > 100 µM with HOP-92 NSCLC; 60.9 µM in the experiment with HS 578T breast; > 100 µM with NCI-H460 lung; > 100 µM in the experiment on MDA-N. For the same compound, the TGI was > 100 µM in the experiment on SF-295 CNS, 4.74 µM in the experiment with OVCAR-4 ovarian and > 100 µM in the experiment on MALME-3M melanoma.
For `C=C(C)CC1(O[Si](C)(C)C)C(=O)C(OCC)=C1OCC` (centres undefined), the TGI in the experiment on M14 melanoma, with HOP-62 NSCLC, in the experiment on HOP-92 NSCLC, in the experiment on HS 578T breast, in the experiment with NCI-H460 lung and in the experiment on SF-295 CNS was > 100 µM throughout. Moreover, the TGI with OVCAR-4 ovarian and in the experiment on MALME-3M melanoma was > 100 µM each time.
Take `CCCCCCCCCCCCCCCCCCNc1nc(=O)n(C2CC(O)C(COP(=O)(O)O)O2)cc1F` (centres undefined): the TGI in the experiment on M14 melanoma, in the experiment with HOP-62 NSCLC, with HOP-92 NSCLC, in the experiment with HS 578T breast, with NCI-H460 lung and in the experiment on MDA-N was > 100 µM throughout. Moreover, the TGI in the experiment with SF-295 CNS, with OVCAR-4 ovarian and in the experiment with MALME-3M melanoma was > 100 µM in each case.
With `NCC(O)CSCc1ccc(Cl)cc1` (centres undefined), the TGI in the experiment with M14 melanoma, in the experiment with HOP-62 NSCLC, with HOP-92 NSCLC, in the experiment with HS 578T breast, in the experiment on NCI-H460 lung and in the experiment with MDA-N was > 100 µM in each case. The TGI in the experiment on SF-295 CNS, in the experiment with OVCAR-4 ovarian and with MALME-3M melanoma was > 100 µM each time.
With `CCOC(=O)c1cc2c([N+](=O)[O-])c(N)ccc2s1`, the TGI in the experiment on M14 melanoma, in the experiment with HOP-62 NSCLC, in the experiment with HOP-92 NSCLC, in the experiment with HS 578T breast, in the experiment on NCI-H460 lung and in the experiment on MDA-N was > 100 µM throughout. Also, the TGI in the experiment with SF-295 CNS, in the experiment on OVCAR-4 ovarian and in the experiment on MALME-3M melanoma was > 100 µM each time.
